A word on the IC50: it is the concentration needed to halve the response being measured.

One assay has as its target T1, human GnRH receptor (Homo sapiens, UniProt P30968).
T1 construct: expressed in transfected cells; host or cells: HEK 293 (hGnRH-R/293, from Dr. Stuart Sealfon)
T1 sequence (P30968 1-328): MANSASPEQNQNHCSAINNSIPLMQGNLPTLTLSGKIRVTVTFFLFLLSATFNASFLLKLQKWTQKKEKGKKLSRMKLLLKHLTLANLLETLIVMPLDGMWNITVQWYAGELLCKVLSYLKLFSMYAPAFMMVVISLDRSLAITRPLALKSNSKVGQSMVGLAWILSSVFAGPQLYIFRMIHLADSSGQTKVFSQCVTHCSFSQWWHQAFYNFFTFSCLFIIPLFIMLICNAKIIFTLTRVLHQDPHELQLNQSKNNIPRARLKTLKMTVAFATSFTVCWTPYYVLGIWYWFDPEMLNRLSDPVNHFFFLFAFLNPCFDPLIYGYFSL
Nature of the assay: Radioligand binding, 125I-GnRH-A displacement, membranes of HEK 293 cells with human GnRH receptor. To be noted: 1 h, substrate remaining; 10 uM compound; closer to zero = closer to 100% inhibition; read-out: S%R 10 uM hGnRHR. The gist of the method:
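After filtration and PBS washes, bound radioactivity was counted by scintillation and IC50 derived. Identical conditions applied for non-human receptors.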
Consider `Cc1cc2c(cc1Cc1ccc(C(=O)Nc3cccnc3)o1)C(C)(C)CCC2(C)C` [Compound 320], for which the remaining activity at 10 µM was found to be 9%.
`CCN(CC)CCNC(=O)c1ccc(NC(=O)c2ccc(Cc3cc4c(cc3C)C(C)(C)CCC4(C)C)o2)cc1` [Compound 321]: the remaining activity at 10 µM amounted to 55%.
Regarding `Cc1cc2c(cc1Cc1ccc(C(=O)Nc3cccc(CO)c3)o1)C(C)(C)CCC2(C)C` [Compound 322], the remaining activity at 10 µM was 4%.
Take `Cc1cc2c(cc1Cc1ccc(C(=O)Nc3ccc(CCO)cc3)o1)C(C)(C)CCC2(C)C` [Compound 323]: the remaining activity at 10 µM was determined as 1%.
Still for that read-out and setting: the result for `Cc1cc2c(cc1Cc1ccc(C(=O)Nc3nc[nH]n3)o1)C(C)(C)CCC2(C)C` [Compound 324] reads 27%; that for `COc1ccc(NC(=O)c2ccc(Cc3cc4c(cc3C)C(C)(C)CCC4(C)C)o2)cn1` [Compound 325], 3%.
For the compound `Cc1ccc(-n2nc(C)cc2NC(=O)c2ccc(Cc3cc4c(cc3C)C(C)(C)CCC4(C)C)o2)cc1` [Compound 326], the remaining activity at 10 µM amounted to 51%.
Still for that read-out and setting: the result for `Cc1cc2c(cc1Cc1ccc(C(=O)Nc3ccccc3CCO)o1)C(C)(C)CCC2(C)C` [Compound 327] reads 0%; that for `Cc1cc(NC(=O)c2ccc(Cc3cc4c(cc3C)C(C)(C)CCC4(C)C)o2)n(-c2ccccc2)n1` [Compound 328], 33%; that for `CC1=CC(NC(=O)c2ccc(Cc3cc4c(cc3C)C(C)(C)CCC4(C)C)o2)=NC1c1ccccc1` (stereo not shown) [Compound 329], 31%.
On the same count and under the same terms, the result for `COc1ccc(OC)c(NC(=O)c2ccc(Cc3cc4c(cc3C)C(C)(C)CCC4(C)C)o2)c1` [Compound 330] reads 10%; that for `Cc1cnc(NC(=O)c2ccc(Cc3cc4c(cc3C)C(C)(C)CCC4(C)C)o2)s1` [Compound 331], 49%; that for `COc1ccc(NC(=O)c2ccc(Cc3cc4c(cc3C)C(C)(C)CCC4(C)C)o2)c(OC)c1` [Compound 332], 1%.
Take `Cc1cc2c(cc1Cc1ccc(C(=O)Nc3ccccc3CO)o1)C(C)(C)CCC2(C)C` [Compound 333]: the remaining activity at 10 µM came out at 28%.
Same read-out and setting: then `Cc1cc2c(cc1Cc1ccc(C(=O)Nc3nccs3)o1)C(C)(C)CCC2(C)C` [Compound 334], with 34%; and `Cc1cc2c(cc1Cc1ccc(C(=O)Nc3ccc(N(C)C)cc3)o1)C(C)(C)CCC2(C)C` [Compound 335], with 2%.
Consider `Cc1cc2c(cc1Cc1ccc(C(=O)Nc3nnc(C4CC4)s3)o1)C(C)(C)CCC2(C)C` [Compound 336], for which the remaining activity at 10 µM was 57%.
For the compound `COc1cccc(NC(=O)c2ccc(Cc3cc4c(cc3C)C(C)(C)CCC4(C)C)o2)c1` [Compound 337], the remaining activity at 10 µM was 6%.
The same measure, in the same setting: then `CCOc1ccc(NC(=O)c2ccc(Cc3cc4c(cc3C)C(C)(C)CCC4(C)C)o2)cc1` [Compound 338], with 26%; and `Cc1cc2c(cc1Cc1ccc(C(=O)Nc3ccc(CO)cc3)o1)C(C)(C)CCC2(C)C` [Compound 339], with 17%; and `Cc1cc2c(cc1Cc1ccc(C(=O)Nc3ccc(O)cc3)o1)C(C)(C)CCC2(C)C` [Compound 340], with 28%.
Same read-out and setting: the result for `Cc1cc2c(cc1Cc1ccc(C(=O)Nc3ccc(O)c4ncccc34)o1)C(C)(C)CCC2(C)C` [Compound 341] reads 20%; that for `Cc1cc2c(cc1Cc1ccc(C(=O)Nc3ccccc3O)o1)C(C)(C)CCC2(C)C` [Compound 342], 45%; that for `COc1cc(C#N)c(NC(=O)c2ccc(Cc3cc4c(cc3C)C(C)(C)CCC4(C)C)o2)cc1OC` [Compound 343], 33%.
For the compound `Cc1cc2c(cc1Cc1ccc(C(=O)Nc3ccccc3C(=O)NCC(C)(C)CN(C)C)o1)C(C)(C)CCC2(C)C` [Compound 344], the remaining activity at 10 µM was found to be 57%.
On the same count and under the same terms, then `Cc1cc2c(cc1Cc1ccc(C(=O)Nc3cccc(O)c3)o1)C(C)(C)CCC2(C)C` [Compound 345], with 40%; and `Cc1cc2c(cc1Cc1ccc(C(=O)Nc3cccc4ncccc34)o1)C(C)(C)CCC2(C)C` [Compound 346], with -14%.
In the case of `Cc1cc2c(cc1Cc1ccc(C(=O)Nc3ccc(CC#N)cc3)o1)C(C)(C)CCC2(C)C` [Compound 347], the remaining activity at 10 µM came to 2%.
With `Cc1cc2c(cc1Cc1ccc(C(=O)Nc3ccccc3C(=O)N3CCN(C)CC3)o1)C(C)(C)CCC2(C)C` [Compound 348], the remaining activity at 10 µM came out at 49%.
Regarding `Cc1cc2c(cc1Cc1ccc(C(=O)Nc3ccccc3C(=O)NC3CC45CCN4CCC35)o1)C(C)(C)CCC2(C)C` (stereo not shown) [Compound 349], the remaining activity at 10 µM came out at 47%.
The same measure, in the same setting: then `CNc1ccccc1NC(=O)c1ccc(Cc2cc3c(cc2C)C(C)(C)CCC3(C)C)o1` [Compound 350], with 10%; and `Cc1cc2c(cc1Cc1ccc(C(=O)Nc3cccc(C#N)c3)o1)C(C)(C)CCC2(C)C` [Compound 351], with 24%; and `Cc1cc2c(cc1Cc1ccc(C(=O)Nc3ccccc3C(=O)NCc3cccnc3)o1)C(C)(C)CCC2(C)C` [Compound 352], with 51%.
The same measure, in the same setting: the result for `Cc1cc2c(cc1Cc1ccc(C(=O)Nc3nc(Cl)c4nc[nH]c4n3)o1)C(C)(C)CCC2(C)C` [Compound 353] reads -4%; that for `Cc1cc2c(cc1Cc1ccc(C(=O)Nc3ccc4[nH]c(O)nc4c3)o1)C(C)(C)CCC2(C)C` [Compound 355], 20%.
The same measure, in the same setting: the result for `Cc1cc2c(cc1Cc1ccc(C(=O)Nc3nccc4ccccc34)o1)C(C)(C)CCC2(C)C` [Compound 356] reads 17%.
For `COc1ccccc1NC(=O)c1ccc(Cc2cc3c(cc2C)C(C)(C)CCC3(C)C)o1` [Compound 358], the remaining activity at 10 µM amounted to 9%.
On the same count and under the same terms, then `Cc1cc2c(cc1Cc1ccc(C(=O)Nc3cccc(OC(F)(F)F)c3)o1)C(C)(C)CCC2(C)C` [Compound 359], with 55%; and `Cc1nc2cc(NC(=O)c3ccc(Cc4cc5c(cc4C)C(C)(C)CCC5(C)C)o3)ccc2s1` [Compound 360], with 4%; and `COC(=O)c1ccc(OC)c(NC(=O)c2ccc(Cc3cc4c(cc3C)C(C)(C)CCC4(C)C)o2)c1` [Compound 361], with 4%.

The same assay, now with this note: read-out: hGnRH IC50.
Turning to `Cc1cc2c(cc1Cc1ccc(C(=O)N3CCN(CCN(Cc4ccccn4)C(=O)c4ccc(Cc5cc6c(cc5C)C(C)(C)CCC6(C)C)o4)CC3)o1)C(C)(C)CCC2(C)C` [Compound 213], the IC50 is above 10000 nM.
As to `Cc1cc2c(cc1Cc1ccc(C(=O)N(CCCO)Cc3ccccn3)o1)C(C)(C)CCC2(C)C` [Compound 214], the concentration for half-maximal inhibition (IC50) was above 10000 nM.
Consider `Cc1cc2c(cc1Cc1ccc(C(=O)N(Cc3ccccn3)CC(C)C)o1)C(C)(C)CCC2(C)C` [Compound 215], for which the IC50 is 7800 nM.
Still for that read-out and setting: the result for `CCOC(=O)CN(Cc1ccccn1)C(=O)c1ccc(Cc2cc3c(cc2C)C(C)(C)CCC3(C)C)o1` [Compound 216] reads 4400 nM.
Still for that read-out and setting: the result for `COc1cc(OC)c(NC(=O)c2cc(Cc3cc4c(cc3C)C(C)(C)CCC4(C)C)on2)c(OC)c1` [Compound 218] reads 6460 nM; that for `COc1cc(OC)c(Cc2ccc(C(=O)Nc3c(OC)cc(OC)cc3OC)o2)c(OC)c1` [Compound 219], 875 nM.
For the compound `COc1cc(OC)c(Cc2ccc(C(=O)Nc3c(OC)cccc3OC)o2)c(OC)c1` [Compound 220], the IC50 is 630 nM.
The same measure, in the same setting: then `COc1cc(OC)c(NC(=O)c2ccc(Cc3c(OC)ccc4c3CCCC4=O)o2)c(OC)c1` [Compound 223], with 1660 nM; and `COc1cc(OC)c(NC(=O)c2ccc(Cc3cc4c(cc3C)C(C)(C)CCC4(C)C)n2Cc2ccccc2)c(OC)c1` [Compound 224], with above 10000 nM; and `COc1cc(OC)c(NC(=O)c2ccc(Cc3cc(OC)c(O)cc3OC)o2)c(OC)c1` [Compound 227], with above 10000 nM.
Still for that read-out and setting: then `COc1cc(OC)c(NC(=O)c2ccc(Cc3cc(C(=O)C(C)(C)C)c(OC)cc3OC)o2)c(OC)c1` [Compound 229], with 250 nM; and `COc1cc(OC)c(NC(=O)c2ccc(Cc3cc(C(C)=O)c(C)cc3C)o2)c(OC)c1` [Compound 230], with 580 nM; and `COc1cc(C)c(Cl)c(C)c1Cc1ccc(C(=O)NCc2nc3ccccc3[nH]2)o1` [Compound 234], with above 10000 nM.
With `COc1cc(OC)c(OC)cc1Cc1ccc(C(=O)Nc2c(OC)cccc2OC)o1` [Compound 235], the IC50 turned out to be 3720 nM.
On the same count and under the same terms, the result for `Cc1cc(C)cc(NC(=O)c2ccc(Cc3cc4c(cc3C)C(C)(C)CCC4(C)C)o2)c1` [Compound 236] reads 903 nM; that for `COc1cc(C)c(Cl)c(C)c1Cc1ccc(C(=O)NCc2cnc(C)cn2)o1` [Compound 237], above 10000 nM.
The same measure, in the same setting: the result for `CCN(CC)C(=O)c1ccc(Cc2cc3c(cc2C)C(C)(C)CCC3(C)C)o1` [Compound 238] reads 7830 nM; that for `COc1cccc(OC)c1NC(=O)c1ccc(Cc2cc(C(C)C)c(O)cc2C)o1` [Compound 303], 320 nM.
As for `COc1cc(OC)c(NC(=O)c2ccc(Cc3cc(C4CCCCC4)ccc3C)o2)c(OC)c1` [Compound 304], the IC50 was 303 nM.

The same assay, now with this note: substrate remaining; 10 uM compound; closer to zero = closer to 100% inhibition.
For `Cc1cc2c(cc1Cc1ccc(C(=O)Nc3ccc4[nH]ccc4c3)o1)C(C)(C)CCC2(C)C` [Compound 354], the “S%R 10 uM hGnRHR” value is −5%.
Same read-out and setting: then `Cc1cc2c(cc1Cc1ccc(C(=O)Nc3ccc4[nH]ccc4c3)o1)C(C)(C)CCC2(C)C` [Compound 357], with −2%.

The record behind these values is patent US7101878B1 (Agouron Pharmaceuticals, Inc., priority 1998, dated 2006).
